Data taken from article PMC3368886, “ATPase Cycle and DNA Unwinding Kinetics of RecG Helicase” (PLoS ONE, 2012).

Legend:
Format in all cases: biochemical
[1] = target: T1, RecG (Thermotoga maritima, UniProt Q9WY48); assay: Steady-state ATPase rate measurements with phosphate biosensor MDCC-PBP; details: for K m / k cat: 20°C, 10 nM RecG, 500 nM DNA junction (A40:B40)
T1 construct: made in house
T1 sequence (Q9WY48 1-780): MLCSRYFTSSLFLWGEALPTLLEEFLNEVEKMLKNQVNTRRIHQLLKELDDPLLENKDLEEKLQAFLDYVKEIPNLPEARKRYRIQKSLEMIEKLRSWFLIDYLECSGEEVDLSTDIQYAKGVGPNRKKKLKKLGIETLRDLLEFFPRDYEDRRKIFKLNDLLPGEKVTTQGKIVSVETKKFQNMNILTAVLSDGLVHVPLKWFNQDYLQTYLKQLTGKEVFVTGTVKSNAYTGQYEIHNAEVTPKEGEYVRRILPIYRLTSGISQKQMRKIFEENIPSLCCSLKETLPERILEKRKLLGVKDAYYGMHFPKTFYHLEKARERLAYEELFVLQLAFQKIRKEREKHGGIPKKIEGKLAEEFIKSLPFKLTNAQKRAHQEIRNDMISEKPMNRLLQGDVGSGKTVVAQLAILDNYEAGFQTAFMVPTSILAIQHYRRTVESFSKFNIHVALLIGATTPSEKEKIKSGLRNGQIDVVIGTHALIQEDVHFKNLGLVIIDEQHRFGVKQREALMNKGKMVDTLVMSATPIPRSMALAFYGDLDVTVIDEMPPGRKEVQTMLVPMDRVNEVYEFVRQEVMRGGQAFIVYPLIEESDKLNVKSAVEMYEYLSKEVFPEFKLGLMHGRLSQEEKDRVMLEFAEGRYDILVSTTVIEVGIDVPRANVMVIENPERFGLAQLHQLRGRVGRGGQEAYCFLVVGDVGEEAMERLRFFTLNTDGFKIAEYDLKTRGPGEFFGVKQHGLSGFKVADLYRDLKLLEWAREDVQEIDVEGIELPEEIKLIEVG
Excerpt: Steady-state measurements were made to gain an overall assessment of the reaction and the affinities of various nucleotides before investigating the individual steps in the ATPase cycle. A two-strand DNA junction, which contains two 20-bp regions of complementary and non-complementary sequences (A40:B40 Figure 1 and Table S1), was used in all these measurements. This forms a Y-shape structure and RecG translocates one single-stranded arm, but then remains bound to the end of the junction still hydrolyzing ATP [10].
All reactions with RecG and DNA were done at 20°C in a buffer containing 50 mM Tris⋅acetate (pH 8.0), 30 mM potassium acetate, 3 mM magnesium acetate and 1 mM DTT. ATPase measurements using MDCC-PBP were taken in the presence of a Pi mop, as described above. Steady-state ATPase measurements were taken in a solution (60 µl) at 20°C, containing 10 nM RecG, 500 nM DNA junction (A40∶B40, see Table S1) and 10 µM MDCC-PBP with varying nucleotide concentrations as substrate or inhibitor [23].

[2] = target: T1, RecG; assay: Phosphate-water oxygen exchange during hydrolysis; details: for k +3 /k −2: γ-18O3 nucleotide, 25°C
Excerpt: In order to get information about the reverse of cleavage step 2 (scheme in Figure 2A), phosphate-water oxygen exchange measurements were done using (γ-^18O3)mantATP. Intermediate exchange can occur between terminal oxygens of the nucleotide and water during hydrolysis, giving information about the value of k +3 /k −2, as previously described. In this case, (γ-^18O3)mantATP was used as substrate and partial hydrolysis occurred in the presence of RecG⋅DNA, as described in the materials and methods section. The Pi had very similar distribution of oxygen-18 as with (γ-^18O3)mantATP, consistent with essentially little reversal of the cleavage step (k +3 /k −2≥9). This is consistent with a rapid release of Pi.
For intermediate exchange during ATP hydrolysis, 0.5 µM RecG and 1 mM (γ-^18O3)ATP or (γ-^18O3)mantATP were incubated for 10 min (+1 µM DNA A40∶B40, Table S1) or 20 min (- DNA) at 25°C in a volume of 100 µl in the buffer described below. Pi was analyzed for distribution of different ^18O-labeled species on a mass spectrometer as described previously, [37] except that during purification, the ^18O-labeled Pi was detected by MDCC-PBP, rather than radioactive tracers.
Supplementary file pone.0038270.s005.pdf: Table S2 Oxygen exchange during ATP or mantATP hydrolysis by RecG: distributions of oxygen-18 in the Pi product. Experiments were performed as described in Materials and Methods. The data were corrected for isotopic enrichment of the starting nucleotide, 93% for (γ-^18O3)mantATP and 98% for (γ-^18O3) ATP. […] Each distribution is the average of three mass spectral assays. Thus the distributions are for the product Pi as though the starting enrichment was 100%. In all cases there was very little oxygen exchange as shown by the large peak of (^18O3)Pi, in which all three γ-oxygens of ATP are retained. The distributions were then used to compute the ratio of rate constants for Pi release (k +3) and on-enzyme ATP resynthesis (k −2) as in Figure 2 [14], [37].

[3] = target: T2, RecG⋅DNA(A40:B40) (Thermotoga maritima, UniProt Q9WY48); assay: Single turnover Pi release kinetics with MDCC-PBP
T2 construct: made in house
T2 sequence (Q9WY48 1-780): T1 sequence (Q9WY48 1-780)
Experimental: Using the phosphate biosensor, MDCC-PBP [13], the kinetics of Pi release were measured under the same conditions (Figure 4A). Fitting the trace by a lag then a single exponential increase gave rate constants of 3.3 s^−1 and 0.21 s^−1. This rate constant for the lag was similar to the observed rate constant for binding at this concentration. The exponential increase had the same rate constant for the slow phase of the mant fluorescence and for the quench-flow measurement of mantADP formation. Thus Pi release occurs rapidly, following the rate-determining cleavage step.
Stopped-flow experiments were performed in a HiTech SF61DX2 apparatus (TgK Scientific Ltd, Bradford-on-Avon, UK) with a mercury-xenon light source and HiTech KinetAsyst 3 or Kinetic Studio 1 software. For MDCC-PBP fluorescence, the excitation wavelength used was 436 nm and a 455 nm cut-off filter (Schott glass) used to collect emitted light. The signal was calibrated using known concentrations of Pi. The solutions contained the Pi mop, to minimize phosphate contamination and comprising 0.01 unit ml^−1 bacterial purine nucleoside phosphorylase and 200 µM 7-methylguanosine. For mant fluorescence, 366 nm was used to excite and a 400 nm cut-off filter (Schott glass) used to collect light. Measurements of Cy3 fluorescence used 547 nm excitation and a 570 nm cut-off filter. In experiments described, the quoted concentrations are those in the mixing chamber, except where stated. Data were fitted to theoretical curves using the HiTech software or Grafit.

[4] = 0.5 µM mantATP, 2.5 µM RecG, 5 µM DNA

SMILES	K m [1]	k cat [1]	(18O1)Pi in product Pi ([2]; DNA present) [%]	(18O2)Pi in product Pi ([2]; DNA present) [%]	(18O3)Pi in product Pi ([2]; DNA present) [%]	k +3 /k −2 ([2]; DNA present (A40∶B40))	(18O1)Pi in product Pi ([2]; no DNA) [%]	(18O2)Pi in product Pi ([2]; no DNA) [%]	(18O3)Pi in product Pi ([2]; no DNA) [%]	k +3 /k −2 ([2]; no DNA)	lower ATPase activity than ATP ([1]; mantATP vs ATP) [fold]	Pi release: rate constant of exponential increase [3, 4] [s⁻¹]	Pi release: rate constant of lag [3, 4] [s⁻¹]	k +3 (Pi release) ([3]; 20°C, Table 2 summary) [s⁻¹]
Nc1ncnc2c1ncn2[C@@H]1O[C@H](COP(=O)(O)OP(=O)(O)OP(=O)(O)O)[C@@H](O)[C@H]1O [ATP]	9 (±2) µM	8.3 (±1.7) s^−1	2.8	2.3	94.9	18	6.1	4.0	89.9	9.0				
CNc1ccccc1C(=O)O[C@H]1[C@@H](O)[C@H](n2cnc3c(N)ncnc32)O[C@@H]1COP(=O)(O)OP(=O)(O)OP(=O)(O)O [mantATP, 2′(3′)-O-(N-methylanthraniloyl)ATP]	1.9 (±0.6) µM	0.3 (±0.1) s^−1	0.4	7.5	92.1	8.7	0.4	7.0	92.6	9.5	30	0.21	3.3	>10
